Laboratory results published in US11795460B2, “Compositions and methods for TTR gene editing and treating ATTR amyloidosis” (Intellia Therapeutics, Inc., priority 2017, dated 2023).

How the values were obtained:
TTR [1] = assay: TTR editing in primary human hepatocytes transfected with Spy Cas9 protein (RNP) loaded with dgRNAs (Table 8); assay type: cell-based; settings: dgRNA transfected with Spy Cas9 protein (RNP)
Summary of the method: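 Primary human hepatocytes were lipofected (RNAiMAX) with RNP of Spy Cas9 (10 nM) plus pre-annealed crRNA (10 nM) and trRNA (10 nM) and harvested 24, 48 or 72 h later. Target-site amplicons were sequenced on Illumina MiSeq and aligned to hg38; percent editing = reads with indels or substitutions over total reads.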

TTR [2] = assay: TTR editing in HUH7 cells transfected with Spy Cas9 mRNA and dgRNAs (Table 5); assay type: cell-based, human; settings: HUH7 cells co-transfected with Spy Cas9 mRNA (SEQ ID NO:2) and dgRNAs
Summary of the method: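 Percent editing is the share of NGS reads at the TTR target carrying insertions, deletions or substitutions, from amplicon sequencing of genomic DNA harvested at 24, 48 or 72 h. HUH7 cells first received Cas9 mRNA (100 ng) by lipofection, then dual-guide RNA (crRNA and tracer, 25 nM each).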

off-target genomic sites = assay: Off-target oligo insertion based assay in HEK293_Cas9 cells, dgRNAs and sgRNAs (Tables 23, 24); assay type: cell-based, human; settings: Table 23; TTR dgRNAs in HekCas9 cells, oligo insertion based assay
Summary of the method: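 In HEK293 cells constitutively expressing Spy Cas9, crRNA (15 nM) plus trRNA (15 nM), or modified sgRNAs, were lipofected with donor oligo (10 nM). Genomic DNA was collected at 24 h, and oligo-insertion libraries were sequenced on MiSeq/HiSeq to map potential off-target cleavage sites.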

Sequence	Avg % Deletion (TTR [1]) [%]	Avg % Edit (TTR [1]) [%]	Avg % Insert (TTR [1]) [%]	Avg % Deletion (TTR [2]) [%]	Avg % Edit (TTR [2]) [%]	Avg % Insert (TTR [2]) [%]	# Sites (off-target integration sites detected) (off-target genomic sites)
CUGCUCCUCCUCUGCCUUGC (tested as dual guide RNA, chemistry not given here) [CR003335]	1.63	51.14	49.51	27.57	31.95	4.62	0
CUUCUCUACACCCAGGGCAC (tested as dual guide RNA, chemistry not given here) [CR003342]	0.81	20.66	19.85	44.66	45.14	1.23	0
GAAAGGCUGCUGAUGACACC (tested as dual guide RNA, chemistry not given here) [CR003352]	3.21	30.48	27.27	32.79	39.68	7.62	2
GACGACAGCCGUGGUGGAAU (tested as dual guide RNA, chemistry not given here) [CR003388]	1.05	5.43	4.38	56.45	59.48	3.88	2
GCAACUUACCCAGAGGCAAA (tested as dual guide RNA, chemistry not given here) [CR003356]	1.29	7.53	6.24	31.31	49.63	18.98	4
GCAGGGCGGCAAUGGUGUAG (tested as dual guide RNA, chemistry not given here) [CR003380]	0.46	8.17	7.71	29.29	31.76	3.29	0
GCCGUGGUGGAAUAGGAGUA (tested as dual guide RNA, chemistry not given here) [CR003387]	0.11	1.79	1.68	25.55	25.64	0.23	6
GCGGCAAUGGUGUAGCGGCG (tested as dual guide RNA, chemistry not given here) [CR003377]	0.31	12.77	12.45	29.89	34.93	5.59	0
GGAGUAGGGGCUCAGCAGGG (tested as dual guide RNA, chemistry not given here) [CR003382]	0.15	2.44	2.28	34.47	34.47	0.14	34
GGCUGUCGUCACCAAUCCCA (tested as dual guide RNA, chemistry not given here) [CR003391]	0.26	34.72	34.46	59.70	61.31	2.10	0
GGGAUUGGUGACGACAGCCG (tested as dual guide RNA, chemistry not given here) [CR003390]	0.24	16.09	15.85	16.49	18.97	3.31	1
GUGAGUCUGGAGAGCUGCAU (tested as dual guide RNA, chemistry not given here) [CR003360]	1.19	31.47	30.27	55.13	58.62	5.01	0
UCUAGAACUUUGACCAUCAG (tested as dual guide RNA, chemistry not given here) [CR003345]	7.91	28.90	21.00	32.18	72.43	41.33	0
UGGACUGGUAUUUGUGUCUG (tested as dual guide RNA, chemistry not given here) [CR003340]	4.50	10.44	5.94	14.23	46.93	33.33	0
UGUAGAAGGGAUAUACAAAG (tested as dual guide RNA, chemistry not given here) [CR003365]	7.54	47.78	40.24	43.82	60.68	17.77	3
UUCUUUGGCAACUUACCCAG (tested as dual guide RNA, chemistry not given here) [CR003357]	0.90	49.35	48.45	30.82	36.31	6.37	3
UUUGACCAUCAGAGGACACU (tested as dual guide RNA, chemistry not given here) [CR003344]	4.48	35.45	30.97	54.40	64.02	10.76	0
